# Several values for one entry are separate records, joined by “and”; a condition that tells them apart may be missing. Identical values can stand only once.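 Briefly, cells in 96-well plates were exposed to five compound concentrations for 48 h, and endpoints were estimated by linear interpolation. GI50: concentration for 50% inhibition of growth. TGI is the concentration that stops growth completely.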
# How the values were obtained:
# Experiment in all cases: DTP human tumour cell line panel, 48 h
# RXF 393 renal = system: RXF 393 renal
# HCT-15 colon = system: HCT-15 colon
# SK-MEL-2 melanoma = system: SK-MEL-2 melanoma
# HOP-92 NSCLC = system: HOP-92 NSCLC
# CCRF-CEM leukemia = system: CCRF-CEM leukemia
# K-562 leukemia = system: K-562 leukemia
# SK-OV-3 ovarian = system: SK-OV-3 ovarian
# MALME-3M melanoma = system: MALME-3M melanoma
# PC-3 prostate = system: PC-3 prostate
# HOP-62 NSCLC = system: HOP-62 NSCLC
Compound,TGI (RXF 393 renal),TGI (HCT-15 colon),TGI (SK-MEL-2 melanoma) [µM],TGI (HOP-92 NSCLC) [µM],TGI (CCRF-CEM leukemia),TGI (K-562 leukemia),TGI (SK-OV-3 ovarian) [µM],TGI (MALME-3M melanoma),GI50 (RXF 393 renal) [µM],GI50 (HCT-15 colon) [µM],GI50 (SK-MEL-2 melanoma),GI50 (HOP-92 NSCLC) [µM],GI50 (CCRF-CEM leukemia) [µM],GI50 (PC-3 prostate),TGI (PC-3 prostate),GI50 (K-562 leukemia) [µM],GI50 (HOP-62 NSCLC) [µM],TGI (HOP-62 NSCLC),GI50 (SK-OV-3 ovarian) [µM],GI50 (MALME-3M melanoma)
C=CCOCCCC(=O)C(=[N+]=[N-])C(=O)OC,> 100 µM,> 100 µM,> 100,> 100,> 100 µM,> 100 µM,> 100,> 100 µM,,,,,,,,,,,,
O=C1CC(N2C(=O)/C(=C/C(Cl)=C\c3ccc([N+](=O)[O-])cc3)SC2=S)C(=O)N1c1ccc(Cl)cc1 (stereo unspecified),2.72 µM,8.2 µM,32.1,6.79,12.4 µM,11.6 µM,> 100,11.6 µM,1.26,0.599,3.12 µM,2.58,0.486,1.34 µM,4.15 µM,0.692,1.73,5.5 µM,3.56,3.09 µM
COC1(OC)C[C@H](C)[C@@]23O[C@]24c2cc(O)c5c(c2N[C@H]3C#C/C=C\C#C[C@]14O)C(=O)c1ccccc1C5=O,0.0256 µM and 0.0186 µM,0.24 µM and 0.543 µM,0.355,0.00982,0.00572 µM and 0.0539 µM,0.101 µM and 0.201 µM,0.0217,,0.00163,0.0118,0.359 µM and 0.0593 µM,,0.005,0.163 µM,0.182 µM,0.00399,< 0.001,0.00216 µM and 0.0173 µM,,< 0.001 µM
O=c1c2c([nH]c3nccn13)CCCC2,> 10 µM,> 10 µM,> 10,,> 10 µM,,> 10,> 10 µM,,,,,,,> 10 µM,,,> 10 µM,,
Cc1cc(C)n(C(=O)C(C)Sc2nnc(SC(C)C(=O)n3nc(C)cc3C)s2)n1 (stereo unspecified),> 100 µM,> 100 µM,> 100,> 100,> 100 µM,> 100 µM,> 100,> 100 µM,,,,,,,> 100 µM,,,> 100 µM,,
C=C1C(C2(C)C=CC(=O)OC3(C)COC(=O)CC32)C(OC=O)C(OC(=O)C(O)C(C)CC)C2(C)C(c3ccoc3)CC(OC(C)=O)C12O (stereo unspecified),> 100 µM,> 100 µM,> 100,> 100,> 100 µM,> 100 µM,> 100,,,,,,,,> 100 µM,,,> 100 µM,,
COc1ccc(/C=c2/[nH]c(=O)/c(=C\c3ccc(OCc4ccccc4)cn3)[nH]c2=O)cc1,83.5 µM,> 100 µM,> 100,80,> 100 µM,> 100 µM,> 100,> 100 µM,,,,,,,> 100 µM,,,> 100 µM,,
CN(C)CCNc1c([N+](=O)[O-])cc2c3c(cccc13)C(=O)N(CCN(C)C)C2=O,3.69 µM,5.54 µM,3.39,2.36,> 100 µM,4.51 µM,7.51,2.28 µM,,,,,,,,,,8.49 µM,,
S=C(NCCCCCCNC(=S)Nc1c2ccccc2nc2ccccc12)Nc1c2ccccc2nc2ccccc12,> 100 µM,> 100 µM,> 100,> 100,> 100 µM,> 100 µM,> 100,> 100 µM,,,,,,,,,,> 100 µM,,
Cc1c2c(cc3c1[nH]c1ccccc13)C(c1ccc(F)cc1)=NCC2,4.32 µM,12.4 µM,3.28,7.27,7.2 µM,5.93 µM,4.45,4.91 µM,,,,,,,,,,6.54 µM,,
O=C1CS(=O)(=O)C(c2cccc(Oc3ccccc3)c2)N1c1cccc(Cl)c1Cl (stereo unspecified),66.9 µM,,40.1,41.6,> 100 µM,46 µM,> 100,59.5 µM,,,,,,,89.9 µM,,,> 100 µM,,
OC(c1ccc(-c2ccccc2)cc1)(c1ccc(-c2ccccc2)cc1)c1ccc(-c2ccccc2)cc1,> 100 µM,> 100 µM,,,,> 100 µM,> 100,,,,,,,,> 100 µM,,,> 100 µM,,
CCn1cc(C(=O)O)c(=O)c2cc(F)c(N3CCN(Cn4c(O)c(N=NC(=O)c5ccncc5)c5cc(Cl)ccc54)CC3)cc21,51.3 µM,> 100 µM,60.9,> 100,,> 100 µM,61.3,> 100 µM,,,,,,,> 100 µM,,,55.2 µM,,
N#CCc1[nH]nc2nc(SCc3ccccc3)nc(N3CCCCC3)c12,32.2 µM,> 100 µM,39.3,31.6,33.8 µM,34.6 µM,45.7,41.8 µM,,,,,,,34 µM,,,35.5 µM,,
O=C1OC(c2ccccc2)=N/C1=C/c1cccs1,> 100 µM,> 100 µM,> 100,> 100,75.1 µM,> 100 µM,> 100,,,,,,,,> 100 µM,,,> 100 µM,,
COc1nc(C#CCCCC#N)nc(OC)n1,30.9 µM,18.3 µM,32.2,,,> 100 µM,> 100,28.5 µM,,,,,,,30.9 µM,,,48.7 µM,,
OC1C=C2C3CN(Cc4cc5c(cc43)OCO5)[C@H]2C[C@@H]1O (stereo partly specified),21.4 µM,34.1 µM,11.9,46.9,7.04 µM,> 100 µM,> 100,> 100 µM,,,,,,,22.6 µM,,,> 100 µM,,
O=C(NN1C(=O)/C(=C/c2ccc(Cl)cc2)N=C1c1ccccc1)c1c(Cl)c(Cl)c(Cl)c(Cl)c1-c1nc2ccccc2[nH]1,,28.3 µM,61.7,37.3,> 100 µM,50 µM,> 100,54.6 µM,,,,,,,> 100 µM,,,> 100 µM,,

Compound,TGI (RXF 393 renal),TGI (HCT-15 colon),TGI (SK-MEL-2 melanoma) [µM],TGI (HOP-92 NSCLC) [µM],TGI (CCRF-CEM leukemia),TGI (K-562 leukemia),TGI (SK-OV-3 ovarian) [µM],TGI (MALME-3M melanoma),GI50 (RXF 393 renal) [µM],GI50 (HCT-15 colon) [µM],GI50 (SK-MEL-2 melanoma),GI50 (HOP-92 NSCLC) [µM],GI50 (CCRF-CEM leukemia) [µM],GI50 (PC-3 prostate),TGI (PC-3 prostate),GI50 (K-562 leukemia) [µM],GI50 (HOP-62 NSCLC) [µM],TGI (HOP-62 NSCLC),GI50 (SK-OV-3 ovarian) [µM],GI50 (MALME-3M melanoma)
COc1ccc(OC)c2sc(N3C(=O)/C(=C/c4ccccc4S)N=C3c3ccccc3)nc12,58.5 µM,> 100 µM,78.8,> 100,42.5 µM,> 100 µM,> 100,,,,,,,,56.5 µM,,,> 100 µM,,
CC(=O)OCCC[C@@H]1C(=C(C)C)CCC2[C@@]1(C)CC[C@@]1(C)C[C@](C)(CCC=C(C)C)CC[C@]21C (stereo partly specified),,> 100 µM,,,> 100 µM,,> 100,> 100 µM,,,,,,,> 100 µM,,,> 100 µM,,
O=C1c2scnc2-c2nccc3c2c1nc1ccccc13,3.98 µM,1.28 µM,4.34,4.85,> 100 µM,> 100 µM,23.4,1.51 µM,,,,,,,> 100 µM,,,8.18 µM,,
CC(=O)C1=C(O)C2(O)C(=O)c3c(c(C)c4ccc(C)c(O)c4c3O)CC2C(N)C1=O (stereo unspecified),20 µM,9.99 µM,> 21,6.2,18.6 µM,12.2 µM,12.6,4.74 µM,,,,,,0.754 µM,11.7 µM,,,10.7 µM,,
CCCCC1Cc2cc(OC)ccc2-c2nc3cc(OC)ccc3n21 (stereo unspecified) (tested in a mixture with another compound),30.8 µM,11.3 µM,,17.1,34.1 µM,36.8 µM,26.4,34.9 µM,,,,,,,24.7 µM,,,29.2 µM,,
Cc1c(N)nc([C@H](CC(N)=O)NC[C@H](N)C(N)=O)nc1C(=O)N[C@H](C(=O)N[C@H](C)[C@@H](O)[C@H](C)C(=O)N[C@H](C(=O)NCCc1nc(-c2nc(C(=O)NCCC[S+](C)C)cs2)cs1)[C@@H](C)O)C(OC1OC(CO)C(O)C(O)C1OC1OC(CO)C(O)C(OC(N)=O)C1O)c1cnc[nH]1 (stereo partly specified),,29 µM [middle of 4 runs],,,25 µM [middle of 4 runs],,,9.03 µM and 22.9 µM and 20.7 µM,,,,,,2.63 µM and 5.22 µM,25 µM and > 100 µM,,,,,0.75 µM and 1.65 µM
COC1CCC(OS(C)(=O)=O)CO1 (stereo unspecified),> 100 µM,,> 100,> 100,91.7 µM,> 100 µM,> 100,> 100 µM,,,,,,,,,,> 100 µM,,
O=C(O)C(Cc1ccccc1)N1C(=O)c2ccccc2C1=O (stereo unspecified),> 100 µM,> 100 µM,> 100,> 100,65.1 µM,> 100 µM,> 100,> 100 µM,,,,,,,> 100 µM,,,> 100 µM,,
CN1CCC23c4ccccc4NC1C21CCN(C)C3Nc2ccccc21,> 375 µM,> 375 µM,> 375,296,> 188 µM,> 187 µM,> 375,> 337 µM,,,,,,,,,,> 375 µM,,
C[N+]1(C)C2CCC1CC(OC(=O)C(CO)c1ccccc1)C2 (stereo unspecified),> 100 µM,> 100 µM,> 100,,> 100 µM,> 100 µM,> 100,> 100 µM,,,,,,,> 100 µM,,,> 100 µM,,
O=C1CCC(NC(=O)Cc2ccc(O)cc2)C(=O)N1 (stereo unspecified),,> 2500 µM,,> 2500,,,> 2500,,,,,,,,,,,,,
CN1CCN(CCCOc2ccc3ncnc(Nc4ccc(Oc5cccc(C(F)(F)F)c5)c(Cl)c4)c3c2)CC1,2.93 µM,2.88 µM,3.72,3.9,7.46 µM,4 µM,,2.89 µM,1.49,1.33,1.86 µM,1.33,2.32,1.71 µM,3.91 µM,1.17,,,,1.5 µM
Cc1c(Cl)c(=O)oc2cc(OCC(=O)c3ccccc3)ccc12,> 100 µM,> 100 µM,> 100,> 100,> 100 µM,> 100 µM,> 100,> 100 µM,,,,,,,> 100 µM,,,67.8 µM,,
N=C(N)C(N=Nc1ccccc1)C(=N)N (stereo unspecified),> 100 µM,> 100 µM,91.9,83.9,40.6 µM,99.1 µM,> 100,> 100 µM,,,,,,,> 100 µM,,,> 100 µM,,
Cc1nc(Cl)c(C)c(Cl)n1,> 100 µM,> 100 µM,> 100,,> 100 µM,> 91.9 µM,> 100,> 100 µM,,,,,,,> 100 µM,,,> 100 µM,,
CCN(CC)/C(=C\Cl)Nc1ccccn1,> 100 µM,> 100 µM,> 100,> 100,> 100 µM,> 100 µM,> 100,> 100 µM,,,,,,,,,,> 100 µM,,
CO[C@@]12C[C@@H](CNC(=O)c3cc(Br)c[nH]3)O[C@@H]1NC(=O)N2,> 100 µM,> 100 µM,> 100,,> 100 µM,,> 100,> 100 µM,,,,,,,> 100 µM,,,> 100 µM,,

# Source: PubChem BioAssay (NCI)
